Consider one substance from patent publication US11427861B2, “Methods for identifying and modulating co-occurant cellular phenotypes” (MASSACHUSETTS INSTITUTE OF TECHNOLOGY, priority 2016, dated 2022).

The subject of the assay is dendritic cells. Put plainly: Induction of the functional dendritic cell subset by immunomodulators. The class given is cell-based, human. Conditions: dendritic cells of normal donors; TLR3 ligand as immunomodulator.

Consider poly I:C, for which the “population of the functional subset of dendritic cells (CD64 and PD-L1 surface expression)” value is given as “induced a larger population of the functional subset of dendritic cells”.
